Data taken from US9670214B2, “Small molecule myristate inhibitors of Bcr-abl and methods of use” (DANA-FARBER CANCER INSTITUTE, INC., priority 2007, dated 2017).

Columns and labels:
[1] = tested on: Ba/F3 cells (IL-3 dependent murine pro-B cell line); test: Proliferation assay (MTT), parental Ba/F3 cells; type: cell-based; settings: Mus musculus, 48 h, drug concentrations 0.005-10 μM, read-out: BaF3
Outline: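 Parental Ba/F3 cells grown with 10 U/ml murine IL-3 in RPMI/10% FBS, plated at 0.3-0.6×10^6/ml with compound at 0.005-10 μM for 48 h, 37 °C. Viability by MTT reduction; IC50 from percent growth relative to DMSO controls.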

[2] = target: Bcr-abl (Ba/F3.p210 cells) (Homo sapiens, UniProt P00519); test: Proliferation assay (MTT), wild type Bcr-abl expressing Ba/F3 cells; type: cell-based, murine; settings: 48 h, drug concentrations 0.005-10 μM
From the text: (§1) Wild type Bcr-abl expressing 32D (32D.p210) and Ba/F3 (Ba/F3.p210) cells, and mutant Bcr-abl expressing cell lines Ba/F3.p210^G250E, Ba/F3.p210^E255V, Ba/F3.p210^T315I, Ba/F3.p210^F317L and Ba/F3.p210^M351T, as well as Ba/F3 cells transformed with Flt-3-ITD kinase. Additional assays included Ba/F3 cells expressing the fusion protein kinases TEL-PDGFRβ, TEL-JAK1, NPM-ALK, TEL-cKit, Tel-Bmx, Tel-FGR3, Tel-Lck and Ba/F3.TPR-met cells. All the above cell lines were maintained in RPMI-1640 medium with L-Glutamine, 10% FBS and 1 mg/ml geneticin (Gibco).
(§2) Cells (0.3-0.6×10^6/ml) were plated in duplicate or triplicate in 96-well plates containing increasing drug concentrations (0.005-10 μM). After incubation at 37° C. in 5% CO2 for 48 h, the effect of the compounds on cell viability was determined by MTT (Promega) colorimetric dye reduction method. Inhibition of cell proliferation was calculated as a percentage of growth of DMSO treated cells, and IC50 values were determined with Microsoft Excel XLfit3.

[3] = target: Bcr-abl T315I (Ba/F3.p210^T315I cells) (Homo sapiens, UniProt P00519, T315I, cells depend on it); test: Proliferation assay (MTT), T315I mutant Bcr-abl expressing Ba/F3 cells; type: cell-based, murine; settings: 48 h, drug concentrations 0.005-10 μM
From the text: as §1, §2

In the case of `COC(=O)c1ccc2c(Nc3ccc(OC(F)(F)F)cc3)ncnc2c1`, the IC50 [1] is reported as 6.62 µM, the IC50 [2] is reported as 0.214 µM and the IC50 [3] is reported as 1.91 µM.

With `OCc1ccc2c(Nc3ccc(OC(F)(F)F)cc3)ncnc2c1` the IC50 [1] was > 10 µM, the IC50 [2] was 0.508 µM and the IC50 [3] was > 10 µM.

`CCN(CC)Cc1ccc2c(Nc3ccc(OC(F)(F)F)cc3)ncnc2c1` was tested, and the IC50 [1] was > 10 µM, the IC50 [2] was 2.04 µM and the IC50 [3] was > 10 µM.

For `CC1CN(C(=O)c2ccc3c(Nc4ccc(OC(F)(F)F)cc4)ncnc3c2)CC(C)N1` (stereo not drawn), the IC50 [1] was 7.62 µM, the IC50 [2] was 2.14 µM and the IC50 [3] was > 10 µM.

For `CNCCN(C)C(=O)c1ccc2c(Nc3ccc(OC(F)(F)F)cc3)ncnc2c1`, the IC50 [1] was > 10 µM, the IC50 [2] was 5.98 µM and the IC50 [3] was > 10 µM.

With `O=C(NCCO)c1ccc2c(Nc3ccc(OC(F)(F)F)cc3)ncnc2c1` the IC50 [1] was > 10 µM, the IC50 [2] was 2.15 µM and the IC50 [3] was > 10 µM.

Molecule `O=C(c1ccc2c(Nc3ccc(OC(F)(F)F)cc3)ncnc2c1)N1CCC2(CC1)C(=O)NCN2c1ccccc1` has an IC50 [1] of 6.89 µM, an IC50 [2] of 1.48 µM and an IC50 [3] of 8.32 µM.

For `NC(=O)C1CCCN(C(=O)c2ccc3c(Nc4ccc(OC(F)(F)F)cc4)ncnc3c2)C1` (stereo not drawn), the IC50 [1] was > 10 µM, the IC50 [2] was 3.09 µM and the IC50 [3] was > 10 µM.

`CCOC(=O)C1CCCN(C(=O)c2ccc3c(Nc4ccc(OC(F)(F)F)cc4)ncnc3c2)C1` (stereo not drawn) was tested, and the IC50 [1] was 8.84 µM, the IC50 [2] was 5.55 µM and the IC50 [3] was > 10 µM.
